In brackets after ≈: the same amount, converted by molar mass.
Legend:
MT4 [1] = assay: Concentration required for protection of MT-4 cells from HIV-1 (IIIB) induced cytopathogenicity in MTT assay; assay type: functional, cell-based; conditions: Homo sapiens
MT4 [2] = assay: Maximum protection (%) of MT-4 cells from HIV-1 (IIIB) induced cytopathogenicity; value ranges from 32-39%; assay type: functional, Homo sapiens
MT4 [3] = assay: Concentration of compound that reduces the viability of mock-infected MT-4 cells by 50%; assay type: functional; conditions: Homo sapiens
MT4 [4] = assay: Maximum protection (%) of MT-4 cells from HIV-2 (ROD) induced cytopathogenicity; value ranges from 27-33%; assay type: functional, Homo sapiens
MT4 [5] = assay: Selectivity index towards HIV-2 (ROD) in MT-4 cells; assay type: functional, Homo sapiens
MT4 [6] = assay: Selectivity index towards HIV-1 (IIIB) in MT-4 cells; assay type: functional, Homo sapiens
MT4 [7] = assay: Concentration required for protection of MT-4 cells from HIV-2 (ROD) induced cytopathogenicity in MTT assay; assay type: functional, cell-based; conditions: Homo sapiens
MT4 [8] = assay: Maximum protection (%) of MT-4 cells from HIV-1 (IIIB) induced cytopathogenicity; value ranges from 8-9%; assay type: functional, Homo sapiens
MT4 [9] = assay: Maximum protection (%) of MT-4 cells from HIV-2 (ROD) induced cytopathogenicity; assay type: functional, Homo sapiens
CCRF-CEM [10] = assay: Selectivity index towards HIV-1 (IIIB) in CEM cells; assay type: functional, Homo sapiens
[11] = Concentration of compound that reduces the viability of mock-infected peripheral blood mononuclear cells by 50%; assay type: functional; conditions: Homo sapiens
MT4 [12] = assay: Maximum protection (%) of MT-4 cells from HIV-1 (IIIB) induced cytopathogenicity; value ranges from 53-59%; assay type: functional, Homo sapiens
CCRF-CEM [13] = assay: Concentration of compound required for protection of CEM cells from HIV-1 (IIIB) induced cytopathogenicity; assay type: functional, cell-based; conditions: Homo sapiens
MT4 [14] = assay: Maximum protection (%) of MT-4 cells from HIV-2 (ROD) induced cytopathogenicity; value ranges from 40-43%; assay type: functional, Homo sapiens
[15] = Selectivity index towards HIV-1 (IIIB) in peripheral blood mononuclear cells; assay type: functional, Homo sapiens
CCRF-CEM [16] = assay: Concentration of compound that reduces the viability of mock-infected CEM cells by 50%; assay type: functional; conditions: Homo sapiens
CCRF-CEM [17] = assay: Selectivity index towards HIV-2 (ROD) in CEM cells; assay type: functional, Homo sapiens
[18] = Concentration of compound required for reduction of p24 production in HIV-1 (IIIB) infected peripheral blood mononuclear cells; assay type: functional; conditions: Homo sapiens
CCRF-CEM [19] = assay: Concentration of compound required for protection of CEM cells from HIV-2 (ROD) induced cytopathogenicity; assay type: functional, cell-based; conditions: Homo sapiens
MT4 [20] = assay: Maximum protection (%) of MT-4 cells from HIV-1 (IIIB) induced cytopathogenicity; value ranges from 3-8%; assay type: functional, Homo sapiens
MT4 [21] = assay: Maximum protection (%) of MT-4 cells from HIV-1 (IIIB) induced cytopathogenicity; value ranges from 29-37%; assay type: functional, Homo sapiens
MT4 [22] = assay: Maximum protection (%) of MT-4 cells from HIV-2 (ROD) induced cytopathogenicity; value ranges from 40-42%; assay type: functional, Homo sapiens
MT4 [23] = assay: Maximum protection (%) of MT-4 cells from HIV-1 (IIIB) induced cytopathogenicity; value ranges from 2-14%; assay type: functional, Homo sapiens
MT4 [24] = assay: Maximum protection (%) of MT-4 cells from HIV-1 (IIIB) induced cytopathogenicity; value ranges from 4-13%; assay type: functional, Homo sapiens
MT4 [25] = assay: Maximum protection (%) of MT-4 cells from HIV-1 (IIIB) induced cytopathogenicity; value ranges from 14-20%; assay type: functional, Homo sapiens
MT4 [26] = assay: Maximum protection (%) of MT-4 cells from HIV-1 (IIIB) induced cytopathogenicity; value ranges from 5-6%; assay type: functional, Homo sapiens
MT4 [27] = assay: Maximum protection (%) of MT-4 cells from HIV-1 (IIIB) induced cytopathogenicity; value ranges from 16-49%; assay type: functional, Homo sapiens
MT4 [28] = assay: Maximum protection (%) of MT-4 cells from HIV-2 (ROD) induced cytopathogenicity; value ranges from 21-26%; assay type: functional, Homo sapiens

Cn1cc(C(=O)O)c(=O)c2cnc(N3CCN(c4ccccn4)CC3)cc21
EC50 (MT4 [1]): > 67.4 µg/mL | Protection (MT4 [2]): <39% | CC50 (MT4 [3]): 67.4 µg/mL (≈ 184 µM) | Protection (MT4 [4]): <33% | Selectivity index (MT4 [5]): <1 | Selectivity index (MT4 [6]): <1 | EC50 (MT4 [7]): > 67.4 µg/mL

COc1ccccc1N1CCN(c2ccc3c(=O)c(C(=O)O)cn(C)c3c2)CC1
EC50 (MT4 [1]): > 125 µg/mL | CC50 (MT4 [3]): > 125 µg/mL | Protection (MT4 [8]): <9% | Protection (MT4 [9]): 6% | EC50 (MT4 [7]): > 125 µg/mL

Cn1cc(C(=O)O)c(=O)c2ccc(N3CCN(c4ccccn4)CC3)cc21
EC50 (MT4 [1]): 19.2 µg/mL (≈ 52.7 µM) | CC50 (MT4 [3]): 65.5 µg/mL (≈ 180 µM) | Selectivity index (CCRF-CEM [10]): >83 | CC50 [11]: > 100 µg/mL | Protection (MT4 [12]): <59% | Selectivity index (MT4 [5]): <1 | EC50 (CCRF-CEM [13]): 1.2 µg/mL (≈ 3.29 µM) | Protection (MT4 [14]): <43% | Selectivity index (MT4 [6]): 3.4 | Selectivity index [15]: >73 | CC50 (CCRF-CEM [16]): > 100 µg/mL | EC50 (MT4 [7]): > 65.5 µg/mL | Selectivity index (CCRF-CEM [17]): >56 | EC50 [18]: 1.37 µg/mL (≈ 3.76 µM) | EC50 (CCRF-CEM [19]): 1.8 µg/mL (≈ 4.94 µM)

Cn1cc(C(=O)O)c(=O)c2cc([N+](=O)[O-])c(N3CCN(c4ccccn4)CC3)c(F)c21
Protection (MT4 [20]): <8% | EC50 (MT4 [1]): > 29.6 µg/mL | CC50 (MT4 [3]): 29.6 µg/mL (≈ 69.2 µM) | Selectivity index (MT4 [5]): <1 | Protection (MT4 [9]): 4% | Selectivity index (MT4 [6]): <1 | EC50 (MT4 [7]): > 29.6 µg/mL

Cn1cc(C(=O)O)c(=O)c2cc(N)c(N3CCN(c4ccccn4)CC3)c(F)c21
EC50 (MT4 [1]): > 6.08 µg/mL | Protection (MT4 [21]): <37% | CC50 (MT4 [3]): 6.08 µg/mL (≈ 15.3 µM) | Protection (MT4 [22]): <42% | Selectivity index (MT4 [5]): <1 | Selectivity index (MT4 [6]): <1 | EC50 (MT4 [7]): > 6.08 µg/mL

Nc1cc2c(=O)c(C(=O)O)cn(C3CCN(Cc4ccccc4)CC3)c2cc1N1CCN(c2ccccn2)CC1
EC50 (MT4 [1]): > 2.36 µg/mL | CC50 (MT4 [3]): 2.36 µg/mL (≈ 4.38 µM) | Selectivity index (MT4 [5]): <1 | Protection (MT4 [9]): 5% | Selectivity index (MT4 [6]): <1 | EC50 (MT4 [7]): > 2.36 µg/mL | Protection (MT4 [23]): <14%

Cn1cc(C(=O)O)c(=O)c2cc([N+](=O)[O-])c(N3CCN(c4ccccn4)CC3)cc21
EC50 (MT4 [1]): > 10.1 µg/mL | CC50 (MT4 [3]): 10.1 µg/mL (≈ 24.6 µM) | Selectivity index (MT4 [5]): <1 | Protection (MT4 [9]): 5% | Protection (MT4 [24]): <13% | Selectivity index (MT4 [6]): <1 | EC50 (MT4 [7]): > 10.1 µg/mL

Nc1cc2c(=O)c(C(=O)O)cn(-c3nc4ccccc4s3)c2cc1N1CCN(c2ccccn2)CC1
EC50 (MT4 [1]): > 9.13 µg/mL | CC50 (MT4 [3]): 9.13 µg/mL (≈ 18.3 µM) | Selectivity index (MT4 [5]): <1 | Protection (MT4 [9]): 21% | Selectivity index (MT4 [6]): <1 | EC50 (MT4 [7]): > 9.13 µg/mL | Protection (MT4 [25]): <20%

Nc1cc2c(=O)c(C(=O)O)cn(-c3ccc(-c4ccccc4)cc3)c2cc1N1CCN(c2nc3ccccc3s2)CC1
EC50 (MT4 [1]): > 0.67 µg/mL | CC50 (MT4 [3]): 0.67 µg/mL (≈ 1.17 µM) | Selectivity index (MT4 [5]): <1 | Protection (MT4 [9]): 1% | Protection (MT4 [26]): <6% | Selectivity index (MT4 [6]): <1 | EC50 (MT4 [7]): > 0.67 µg/mL

COc1c(N2CCN(c3ccccn3)CC2)c(N)cc2c(=O)c(C(=O)O)cn(C)c12
EC50 (MT4 [1]): > 4.28 µg/mL | CC50 (MT4 [3]): 4.28 µg/mL (≈ 10.5 µM) | Selectivity index (MT4 [5]): <1 | Selectivity index (MT4 [6]): <1 | Protection (MT4 [27]): <49% | EC50 (MT4 [7]): > 4.28 µg/mL | Protection (MT4 [28]): <26%

From ChEMBL document CHEMBL1137226, “Structure modifications of 6-aminoquinolones with potent anti-HIV activity” (J Med Chem, 2004)
